This note sets out measurements from patent US9708323B2, “Tricyclic compounds as alpha-7 nicotinic acetylcholine receptor ligands” (BRISTOL-MYERS SQUIBB COMPANY, priority 2014, dated 2017).

Read-outs that look alike come from different tables or passages of the source. Some results are limits rather than exact numbers.

This experiment addresses T1, α-7 nicotinic ACh receptor ion channel expressed in HEK 293 cells (Rattus norvegicus, UniProt Q05941).
T1 construct: expressed in transfected cells
As to the kind of experiment: Ca2+-sensitive, fluorescence-based assay for α-7 nicotinic acetylcholine receptor channel function in mammalian cells (FLIPR). In kind it is cell-based. To be noted: read-out: FLIPR α7 (EC50). On the procedure:
II) A Ca^2+-Sensitive, Fluorescence-Based Assay α-7 for Nicotinic Acetylcholine Receptor Channel Function in Mammalian Cells (“FLIPR”). Summary:
Lead compounds are evaluated for agonist activity at α-7, α3β4, α4αβ2, and α1β1δ1ε sub-types of nicotinic ACh receptor ion channels expressed in mammalian HEK 293 cells. Agonist potency and efficacy values are determined from kinetic fluorescence Ca^2+ influx measurements made using a 384 well FLIPR (Fluorescence Image Plate Reader). The utility of fluorescent indicators for measuring changes in intracellular divalent cation concentrations, particularly Ca^2+, for drug discovery endeavors is well documented (Rudiger, R., et al., Nature Reviews, 2003, 4:579-586; Gonzalez J. E., et al., Receptors and Channels, 2002, 8:283-295). In this assay, channel expressing HEK cell lines seeded in 384 well assay plates are loaded with a membrane permeant fluorescent Ca^2+ indicator dye, whose 510 nm green emission signal increases in response to elevation of intracellular Ca^2+ concentration. The basal fluorescence from the cells is monitored in real time, followed by the acute addition of test compounds. If the compound is an agonist at any of the non-selective cation channels, the latter open and allow the movement of extracellular Ca^2+ ions into the cell cytoplasm, where they bind to the Ca^2+ indicator dye, and produce an increase in fluorescence output signal, which is detected by a cooled CCD imaging camera.
Reagents: The acetomethoxy (AM) ester of the Ca^2+ indicator dye Fluo-4 was obtained from InVitrogen, (Carlsbad, Calif.). Acetylcholine and all buffer constituents were purchased from Sigma Chemical Company, St. Louis, Mo. G418 and Minimal Essential Medium were purchased from InVitrogen Life Technologies, Carlsbad, Calif. Fetal bovine serum was purchased from (InVitrogen, Carlsbad, Calif.).
HEK-293 cells were grown in Minimal Essential Medium containing 10% (v/v) fetal bovine serum at 37° C. in a 5% CO2 incubator. HEK-293 cells stably expressing the ion channels were grown in the same medium with the addition of 500 μg/ml G418.
HEK-293 cells expressing the ion channels of interest were plated in 384 well, black-walled, clear-bottomed, poly-D-lysine coated plates at a density of ˜20,000 cells/well in 20 μl of Minimal Essential Medium containing 10% (v/v) fetal bovine serum and incubated for 2 days at 29° C. in a 5% CO2 incubator. Prior to assay, cells were loaded with the Fluo-4 AM ester. Cell loading was accomplished by removing the culture medium and replacing it with 30 μl/well of the AM ester of the dye (5 μM) mixed with Hanks Balanced Salt Solution (#14175-095) containing 20 mM HEPES, 2.5 mM probenecid, 0.5 mM CaCl2, 1 mM MgCl2 and 10 μM atropine. Dye loading was allowed to proceed for 90 minutes at room temperature at which time the dye loading solution was removed and replaced with 40 μl/well of Hanks buffer. Cells loaded with dye were loaded onto a FLIPR384 (Molecular Devices, Sunnyvale, Calif.). Fluo-4 dye was excited using the 488 nm line of an argon laser. Emission was filtered using a 540+/−30 nm bandpass filter. For evaluation of the effects of test compounds using the Ca^2+ flux assay, compounds to be tested were provided in assay ready plates. For nicotinic receptor ion channel expressing cells, the assay was initiated by the addition of 20 μl/well of Hanks buffer containing test compounds. For all assays, data were collected at 1 Hz for 10 seconds (baseline), at which time the compound containing stimulus buffers are added, and further measurements collected at 0.33 Hz for 3 min.
The statistical robustness of the nicotinic receptor Ca^2+ flux assays is determined from blanks and totals wells. The totals wells define maximal channel activation for each compound test plate (Maximum efficacious dose of acetylcholine), and the blanks wells which contain matched DMSO only, define zero channel activation. […]

T1 sequence (Q05941 23-502): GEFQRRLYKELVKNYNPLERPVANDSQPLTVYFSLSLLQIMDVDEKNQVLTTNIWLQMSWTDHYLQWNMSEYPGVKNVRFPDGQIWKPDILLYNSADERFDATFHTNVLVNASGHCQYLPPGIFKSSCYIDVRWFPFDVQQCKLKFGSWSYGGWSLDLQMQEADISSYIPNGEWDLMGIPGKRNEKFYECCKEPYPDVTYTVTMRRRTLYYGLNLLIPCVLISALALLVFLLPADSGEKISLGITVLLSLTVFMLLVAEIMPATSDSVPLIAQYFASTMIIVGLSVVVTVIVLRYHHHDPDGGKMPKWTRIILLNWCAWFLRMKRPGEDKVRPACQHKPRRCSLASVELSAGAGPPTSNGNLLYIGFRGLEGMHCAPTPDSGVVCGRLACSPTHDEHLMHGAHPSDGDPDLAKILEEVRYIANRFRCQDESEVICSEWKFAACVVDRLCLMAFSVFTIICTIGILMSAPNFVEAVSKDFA

For the molecule `O=C(c1cc2cccc(Cl)c2s1)N1C[C@H]2C[N@]3CC[C@H]2[C@H]1C3` [Example 96, 7-chlorobenzo[b]thiophen-2-yl((3R,3aR,6S,7aS)-hexahydro-3,6-methanopyrrolo[2,3-c]pyridin-1(2H)-yl)methanone], the EC50 (Table 2, agonist Ca2+ flux) is above 100 µM.
The same measure, in the same setting: the figure for `O=C(c1nsc2ccccc12)N1C[C@H]2C[N@]3CC[C@H]2[C@H]1C3` [Example 97, benzo[d]isothiazol-3-yl((3R,3aR,6S,7aS)-hexahydro-3,6-methanopyrrolo[2,3-c]pyridin-1(2H)-yl)methanone] is 30 µM; for `O=C(c1ccc(Cl)cc1)N1C[C@H]2C[N@]3CC[C@H]2[C@H]1C3` [Example 98, (4-chlorophenyl) ((3R,3aR,6S,7aS)-hexahydro-3,6-methanopyrrolo[2,3-c]pyridin-1(2H)-yl)methanone] it is above 100 µM; for `O=C(c1cc2ccccc2o1)N1C[C@H]2C[N@]3CC[C@H]2[C@H]1C3` [Example 99, benzofuran-2-yl((3R,3aR,6S,7aS)-hexahydro-3,6-methanopyrrolo[2,3-c]pyridin-1(2H)-yl)methanone] it is 35 µM.
Regarding `O=C(c1cc2ccccc2s1)N1C[C@@H]2C[N@@]3CC[C@@H]2[C@@H]1C3` [Example 100, benzo[b]thiophen-2-yl((3S,3aS,6R,7aR)-hexahydro-3,6-methanopyrrolo[2,3-c]pyridin-1(2H)-yl)methanone], the EC50 (Table 3, agonist Ca2+ flux) came to 11 µM.
Same read-out and setting: the same measure for `Cn1nc(C(=O)N2C[C@@H]3C[N@@]4CC[C@@H]3[C@@H]2C4)c2ccccc21` [Example 101, ((3S,3aS,6R,7aR)-hexahydro-3,6-methanopyrrolo[2,3-c]pyridin-1(2H)-yl)(1-methyl-1H-indazol-3-yl)methanone]: above 100 µM.
With `Cn1cc(C(=O)N2C[C@@H]3C[N@@]4CC[C@@H]3[C@@H]2C4)c2ccccc21` [Example 102, ((3S,3aS,6R,7aR)-hexahydro-3,6-methanopyrrolo[2,3-c]pyridin-1(2H)-yl)(1-methyl-1H-indol-3-yl)methanone], the EC50 (Table 3, agonist Ca2+ flux) is above 100 µM.
On the same count and under the same terms, the same measure for `O=C(c1n[nH]c2ccc(Cl)cc12)N1C[C@@H]2C[N@@]3CC[C@@H]2[C@@H]1C3` [Example 103, ((3S,3aS,6R,7aR)-hexahydro-3,6-methanopyrrolo[2,3-c]pyridin-1(2H)-yl)(5-chloro-1H-indazol-3-yl)methanone]: above 100 µM.
On the same count and under the same terms, the figure for `COc1ccc2c(C(=O)N3C[C@@H]4C[N@@]5CC[C@@H]4[C@@H]3C5)n[nH]c2c1` [Example 104, ((3S,3aS,6R,7aR)-hexahydro-3,6-methanopyrrolo[2,3-c]pyridin-1(2H)-yl)(6-methoxy-1H-indazol-3-yl)methanone] is above 100 µM; for `O=C(c1n[nH]c2ccc(Br)cc12)N1C[C@@H]2C[N@@]3CC[C@@H]2[C@@H]1C3` [Example 105, ((3S,3aS,6R,7aR)-hexahydro-3,6-methanopyrrolo[2,3-c]pyridin-1(2H)-yl)(5-bromo-1H-indazol-3-yl)methanone] it is above 100 µM; for `O=C(c1cc2c(Cl)cccc2s1)N1C[C@@H]2C[N@@]3CC[C@@H]2[C@@H]1C3` [Example 106, 4-chlorobenzo[b]thiophen-2-yl((3S,3aS,6R,7aR)-hexahydro-3,6-methanopyrrolo[2,3-c]pyridin-1(2H)-yl)methanone] it is above 100 µM.
The same measure, in the same setting: the same measure for `COc1cccc2[nH]nc(C(=O)N3C[C@@H]4C[N@@]5CC[C@@H]4[C@@H]3C5)c12` [Example 107, ((3S,3aS,6R,7aR)-hexahydro-3,6-methanopyrrolo[2,3-c]pyridin-1(2H)-yl)(4-methoxy-1H-indazol-3-yl)methanone]: 30 µM; for `O=C(c1cc2cccc(Cl)c2s1)N1C[C@@H]2C[N@@]3CC[C@@H]2[C@@H]1C3` [Example 108, 7-chlorobenzo[b]thiophen-2-yl((3S,3aS,6R,7aR)-hexahydro-3,6-methanopyrrolo[2,3-c]pyridin-1(2H)-yl)methanone]: above 100 µM; for `O=C(c1n[nH]c2cc(Cl)ccc12)N1C[C@@H]2C[N@@]3CC[C@@H]2[C@@H]1C3` [Example 109, ((3S,3aS,6R,7aR)-hexahydro-3,6-methanopyrrolo[2,3-c]pyridin-1(2H)-yl)(6-chloro-1H-indazol-3-yl)methanone]: above 100 µM.
Regarding `COc1ccc2[nH]nc(C(=O)N3C[C@@H]4C[N@@]5CC[C@@H]4[C@@H]3C5)c2c1` [Example 110, ((3S,3aS,6R,7aR)-hexahydro-3,6-methanopyrrolo[2,3-c]pyridin-1(2H)-yl)(5-methoxy-1H-indazol-3-yl)methanone], for the setting “Table 3, agonist Ca2+ flux”, the EC50 is above 100 µM.
Still for that read-out and setting: the figure for `O=C(c1nsc2ccccc12)N1C[C@@H]2C[N@@]3CC[C@@H]2[C@@H]1C3` [Example 111, benzo[d]isothiazol-3-yl((3S,3aS,6R,7aR)-hexahydro-3,6-methanopyrrolo[2,3-c]pyridin-1(2H)-yl)methanone] is 36 µM; for `O=C(c1ccc(Cl)cc1)N1C[C@@H]2C[N@@]3CC[C@@H]2[C@@H]1C3` [Example 112, (4-chlorophenyl)((3S,3aS,6R,7aR)-hexahydro-3,6-methanopyrrolo[2,3-c]pyridin-1(2H)-yl)methanone] it is above 100 µM; for `O=C(c1cc2ccccc2o1)N1C[C@@H]2C[N@@]3CC[C@@H]2[C@@H]1C3` [Example 113, benzofuran-2-yl((3S,3aS,6R,7aR)-hexahydro-3,6-methanopyrrolo[2,3-c]pyridin-1(2H)-yl)methanone] it is above 100 µM.
`O=C(c1n[nH]c2ccccc12)N1CC2CCN3CCC2C1C3` (centres unmarked) [Example 114, (hexahydro-1H-1,6-methanopyrrolo[3,4-d]azepin-2(7H)-yl)(1H-indazol-3-yl)methanone]: the EC50 (Table 4, agonist Ca2+ flux) was 0.47 µM.
On to `O=C(c1n[nH]c2ccccc12)N1C2CC3CC1CN(C3)C2` [Example 115, 1,4-diazaadamantan-4-yl(1H-indazol-3-yl)methanone], for which the concentration for a half-maximal effect (EC50) (Table 5, agonist Ca2+ flux) was 0.073 µM.

In general, EC50 refers to the concentration that produces a half-maximal response.
